Patent US9040717B2, “Pyrazole-amide compounds and pharmaceutical use thereof” (JAPAN TOBACCO INC., priority 2013, dated 2015)

Molecular target: hERG (Homo sapiens (Human), UniProt Q12809)
Test: hERG whole cell patch clamp test
Assay type: cell-based
Conditions: human, hERG-transfected HEK293 cells, pH 7.4; whole cell patch clamp
Protocol: Using human ether-a-go-go related gene (hERG)-transfected HEK293 cells (Cytomyx Limited), an influence on hERG current was examined according to the whole cell patch clamp technique. The hERG-transfected HEK293 cells were passaged using a CO2 incubator (BNA-111, TABAI ESPEC CORP.) under the set conditions of 37° C., 5% CO2, saturated humidity. Culture containers used were Collagen Type I Coated 75 cm^2 flask (4123-010, AGC TECHNO GLASS CO., Ltd.) and Collagen Type I Coated 35 mm culture dish (4000-010, AGC TECHNO GLASS CO., Ltd.). The culture medium used was E-MEM (Eagle Minimum Essential Medium (Earle's Salts, Nikken biomedical laboratory) added with 10% FCS (Fetal calf serum, BioWest, L.L.C.) and 1% MEM Non-Essential Amino Acids Solution (NEAA, Invitrogen Corporation). Geneticin for the selection of hERG gene expressing cells was added thereto to a concentration of 400 μg/mL. As the cells for the measurement, 3×10^4 hERG-transfected HEK293 cells were plated on a 35 mm culture dish 4 to 7 days before measurement of the hERG current. The culture dish produced for the measurement contained the above-mentioned culture medium without geneticin (Invitrogen Corporation).
The highest evaluation concentration of each compound was determined from the highest concentration at which precipitation was not found in the standard extracellular fluid (NaCl: 140 mmol/L, KCl: 2.5 mmol/L, MgCl2:2 mmol/L, CaCl2: 2 mmol/L, HEPES: 10 mmol/L, glucose: 10 mmol/L (adjusted to pH 7.4 with Tris-base)). As the application method, each solution to be applied was ejected from a Y-tube having a tip diameter of about 0.25 mm, which was adjacent (about 2 mm) to the cells, and applied to the cells. The ejection rate was about 0.4 mL/min.
The experiment was performed at room temperature under a phase contrast microscope. The 35 mm culture dish plated with the cells was set on a measurement apparatus, and the standard extracellular fluid was continuously applied to the cells from the Y-tube. A glass electrode for the measurement was filled with an intracellular fluid (Potassium Gluconate: 130 mmol/L, KCl: 20 mmol/L, MgCl2: 1 mmol/L, ATP-Mg: 5 mmol/L, EGTA: 3.5 mmol/L, HEPES: 10 mmol/L (adjusted to pH 7.2 with Tris-base)). A conventional whole cell patch clamp method was applied to the cells, and the maintenance electric potential was set to −80 mV. Under a fixed electric potential, the whole cell current was amplified by an amplifier for patch clamp (AXOPATCH-200B, Axon Instruments, Inc.), and the data was loaded into a computer (IMC-P642400, Intermedical Co., Ltd.) using a data acquisition analysis software (pCLAMP 9.2, Axon Instruments, Inc.).
The measurement of the hERG current was performed in the following two steps. In both cases, the hERG current was initiated by giving a command potential (maintenance electric potential −80 mV, prepulse +20 mV, 1.5 sec, test-pulse −50 mV, 1.5 sec).
Step (1): The above-mentioned command potential was given at 0.1 Hz for 2 min.
Step (2): The above-mentioned command potential was subjected to P/3 subtraction of pCLAMP 9.2 to remove leak current. This was repeated three times and an average thereof was taken as hERG current.
Subsequent to step (1), Step (2) was performed (about 3 min), and the maximum tail current obtained by applying a test-pulse to the hERG current obtained by the method of step (2) was taken as hERG current value. Hereafter, the operations of (1) and (2) were alternately repeated until completion of the experiment and the hERG current value was measured.
Stable hERG current value was recorded three times (about 10 min), and the standard extracellular fluid was instantaneously exchanged with each application fluid. The hERG current value was measured three times (about 10 min) in the same manner during perfusion of the application fluid, and the current value obtained by the 3rd measurement was taken as hERG current value after perfusion of the application fluid. […]

hERG, sequence (Q12809 whole entry): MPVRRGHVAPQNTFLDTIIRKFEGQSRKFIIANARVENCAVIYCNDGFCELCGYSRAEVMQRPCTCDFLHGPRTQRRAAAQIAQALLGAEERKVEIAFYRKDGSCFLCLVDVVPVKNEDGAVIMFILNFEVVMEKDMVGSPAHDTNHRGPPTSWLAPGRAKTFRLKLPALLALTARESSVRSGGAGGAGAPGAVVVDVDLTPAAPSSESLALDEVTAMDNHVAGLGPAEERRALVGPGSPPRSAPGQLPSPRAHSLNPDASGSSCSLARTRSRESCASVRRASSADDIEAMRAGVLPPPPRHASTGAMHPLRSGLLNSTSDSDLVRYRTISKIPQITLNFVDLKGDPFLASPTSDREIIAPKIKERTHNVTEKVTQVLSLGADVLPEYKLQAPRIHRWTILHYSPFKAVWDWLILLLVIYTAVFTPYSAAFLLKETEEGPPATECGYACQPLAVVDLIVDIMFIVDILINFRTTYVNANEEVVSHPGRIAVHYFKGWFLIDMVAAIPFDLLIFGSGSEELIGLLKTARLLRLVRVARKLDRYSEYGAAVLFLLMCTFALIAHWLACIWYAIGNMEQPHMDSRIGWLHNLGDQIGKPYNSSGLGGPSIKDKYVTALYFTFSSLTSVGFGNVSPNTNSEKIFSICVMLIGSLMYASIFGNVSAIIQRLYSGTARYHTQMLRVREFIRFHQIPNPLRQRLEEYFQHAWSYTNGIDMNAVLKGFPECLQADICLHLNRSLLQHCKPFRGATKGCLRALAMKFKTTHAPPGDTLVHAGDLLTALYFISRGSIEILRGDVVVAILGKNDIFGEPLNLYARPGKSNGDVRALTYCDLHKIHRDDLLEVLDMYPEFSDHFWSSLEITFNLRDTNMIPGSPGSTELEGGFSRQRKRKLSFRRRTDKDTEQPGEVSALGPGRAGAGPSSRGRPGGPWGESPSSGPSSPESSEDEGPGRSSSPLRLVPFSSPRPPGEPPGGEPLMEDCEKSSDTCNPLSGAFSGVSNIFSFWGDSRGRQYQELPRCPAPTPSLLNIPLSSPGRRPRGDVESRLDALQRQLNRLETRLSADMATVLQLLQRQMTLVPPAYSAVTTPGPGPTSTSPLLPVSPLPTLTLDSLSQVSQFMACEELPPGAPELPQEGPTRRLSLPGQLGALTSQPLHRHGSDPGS

SMILES: NC(=O)Cn1cc(-c2cc(OCCC34CC5CC(CC(O)(C5)C3)C4)cc3c2-c2ccccc2[C@]3(O)C(F)(F)F)cn1 [Compound (A), 2-(4-{(9R)-9-Hydroxy-2-[2-(3-hydroxyadamantan-1-yl)ethoxy]-9-(trifluoromethyl)-9H-fluoren-4-yl}-1H-pyrazol-1-yl)acetamide]
- IC50 at 10 min: > 10 µM
